Target: RXFP4 (h) (Homo sapiens, UniProt Q8TDU9)
Test: RXFP4 assay (Eurofins/LeadHunter, cAMP Hunter GPCR Biosensor)
Type: cell-based
Procedure: Melafenoxate is found to weakly bind with RXFP3 and RXFP4 receptors (Study FR095-0024749-Q Eurofins/leadHunter Jun. 25, 2021; unpublished data).
In these assays' compounds were tested in agonist and antagonist mode with the GPCR Biosensor Assays and match to this design:
• 1. CAMP Hunter cell lines were expanded from freezer stocks according to standard procedures. • 2. Cells were seeded in a total volume of 20 μL into white walled, 384-well microplates and incubated at 37° C. for the appropriate time prior to testing. • 3. cAMP modulation was determined using the DiscoverX HitHunter CAMP XS+assay.
• 1. For agonist determination, cells were incubated with sample to induce response. • 2. Media was aspirated from cells and replaced with 15 μL 2:1 HBSS/10 mM Hepes: CAMP XS+ Ab reagent. • 3. […]
• 1. […] Microplates were read following signal generation with a PerkinElmer Envision™ instrument for chemiluminescent signal detection.
• 1. Compound activity was analyzed using CBIS data analysis suite (ChemInnovation, CA). • 2. For Gs agonist mode assays, percentage activity is calculated using the following formula:
% Activity=100%×(mean RLU of test sample−mean RLU of vehicle control)/(mean RLU of MAX control−mean RLU of vehicle control). • 3. For Gs positive allosteric mode assays, percentage modulation is calculated using the following formula: http://www.eurofinsdiscoveryservices.com Confidential Jun. […]

Chain of RXFP4 (h) (Q8TDU9 whole entry): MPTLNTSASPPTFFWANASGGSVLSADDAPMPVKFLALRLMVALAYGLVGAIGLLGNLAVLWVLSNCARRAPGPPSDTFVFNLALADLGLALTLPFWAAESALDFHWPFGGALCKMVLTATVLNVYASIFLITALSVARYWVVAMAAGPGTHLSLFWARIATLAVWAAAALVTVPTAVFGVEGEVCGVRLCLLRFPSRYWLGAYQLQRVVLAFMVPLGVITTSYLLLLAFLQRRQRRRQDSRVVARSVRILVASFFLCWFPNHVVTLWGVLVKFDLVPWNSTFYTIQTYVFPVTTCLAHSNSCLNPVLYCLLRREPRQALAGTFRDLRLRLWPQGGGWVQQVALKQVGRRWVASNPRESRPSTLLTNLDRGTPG

binding with RXFP4 receptor (in words): weakly bind | % Inhibition at 5*10^−5 M (5*10^−5 M): 19.5%
Structure (SMILES): O=C(COc1ccc(Cl)cc1)OCCNC12CC3CC(CC(C3)C1)C2 [Melafenoxate, 2-(1-adamantylamino)ethyl 2-(4-chlorophenoxy)acetate]
